Patent US20260274814A1, “THIENYL COMPOUNDS FOR THE TREATMENT OF A CENTRAL NERVOUS SYSTEM DISEASE OR DISORDER” (Coreterra Therapeutics, Inc., priority 2023, published 2026)
Where a name gives a salt, the structure may show the parent alone.

Test system: mice
Experiment: Neuropharmacological Assay (SmartCube): automated behavioral signature of compound-treated mice compared with a database of reference drug classes
Format: in vivo
Settings: for MED (minimal effective dose) / minimal effective dose: dose having 45% or more total activity in SmartCube, i.p., if only one dose was tested, that dose is shown; for AG / AN / AX / CE / HL / MS / PS / SH / UK / AD / AP: probability that activity matches this class of agents, 3.0 mg/kg i.p., 15 min before test; for minimal effective dose: Mus musculus, ip, read-out: MED (minimal effective dose)
Source text: Neurosci. 2011 Sep. 9; 5: 103 (doi: 10.3389/fnins.2011.00103) (“Roberds”). As reported in Roberds, because psychiatric diseases generally result from disorders of cell-cell communication or circuitry, intact systems are useful in detecting improvement in disease-relevant endpoints. These endpoints are typically behavioral in nature, often requiring human observation and interpretation. To facilitate testing of multiple compounds for behavioral effects relevant to psychiatric disease, PsychoGenics, Inc. (Tarrytown, NY, “PGI”) developed SmartCube™ an automated system in which behaviors of compound-treated mice are captured by digital video and analyzed with computer algorithms. (D. Brunner et al. Drug Discov. Today 2002, 7:S107-S112). PGI Analytical Systems uses data from SmartCube™ to compare the behavioral signature of a test compound to a database of behavioral signatures obtained using a large set of diverse reference compounds. (The composition of the database as well as validation of the method is further described in Roberds). In this way, the neuropharmacological effects of a test compound can be predicted by similarity to major classes of compounds, such as antipsychotics, anxiolytics and antidepressants.
The SmartCube™ system produces an activity signature indicating the probability that the activity of the test compound at the administered dose matches a given class of neuropharmacological agents. (See, e.g., Roberds, FIGS. 2 and 3). The test compound is simultaneously compared against multiple classes of agents; thus, a separate probability is generated for each behavioral effect measured (e.g., anxiolytic activity, analgesic activity, etc.). In table 2 below, these probabilities are reported for each behavioral effect measured as described in Table 1 below.
Provided compounds were dissolved in a mixture of Pharmasolve™ (N-methyl-2-pyrrolidone), polyethylene glycol and propylene glycol, and were injected i.p. 15 min. before the behavioral test. For each compound, injections were administered at 3 different doses. For each behavioral effect measured, results for the 3.0 mg/kg dose are presented. The potency of many of the compounds in the table was also determined in the SmartCube™ system. Test compounds were routinely examined at dose levels of 0.3, 1, 3 and 10 mg per kg (mpk), although the dose range was increased or decreased, if necessary, to obtain a full dose response curve. A compound's minimal effective dose (MED) is a measure of the compound's potency. The MED was defined as the dose (in mpk) having 45% or more total activity in SmartCube. If only one dose was tested, that dose is shown in the MED column of Table 2 even though the dose is not known to be the MED.

With `CCc1scc2c1CCC(NC)C2` (single isomer, unassigned) [Compound 113, 1-ethyl-N-methyl-4,5,6,7-tetrahydro-2-benzothiophen-5-amine hydrochloride] the “MED (minimal effective dose)” value (hydrochloride) was 0.3 mpk, the AG was “ND (^ <4%)” and the AN was “ND (^ <4%)”. For the same compound, the AX was “ND (^ <4%)”, the CE was “ND (^ <4%)” and the HL was “ND (^ <4%)”. For the same compound, the MS was “ND (^ <4%)”, the PS was “ND (^ <4%)” and the SH was “ND (^ <4%)”. For the same compound, the UK was “ND (^ <4%)”, the AD (hydrochloride, 3 mg/kg) was “+ (≥4%)” and the AP (hydrochloride, 3 mg/kg) was “++++ (≥74%)”.

With `CCc1scc2c1CCC(NC)C2` (single isomer, unassigned) [Compound 114, 1-ethyl-N-methyl-4,5,6,7-tetrahydro-2-benzothiophen-5-amine hydrochloride] the “MED (minimal effective dose)” value (hydrochloride) was 3 mpk, the AG was “ND (^ <4%)” and the AN was “ND (^ <4%)”. The AX was “ND (^ <4%)”, the CE was “ND (^ <4%)” and the HL was “ND (^ <4%)”. The MS was “ND (^ <4%)”, the PS was “ND (^ <4%)” and the SH was “ND (^ <4%)”. The UK was “ND (^ <4%)”, the AD (hydrochloride, 3 mg/kg) was “+++ (≥49%)” and the AP (hydrochloride, 3 mg/kg) was “+ (≥4%)”.

With `CCc1scc2c1CC(NC)CC2` (single isomer, unassigned) [Compound 115, 3-ethyl-N-methyl-4,5,6,7-tetrahydro-2-benzothiophen-5-amine hydrochloride] the minimal effective dose was 3 mg/kg, the AD was “ND (^ <4%)” and the AG was “ND (^ <4%)”. For the same compound, the AN was “ND (^ <4%)”, the AX was “ND (^ <4%)” and the CE was “ND (^ <4%)”. For the same compound, the HL was “ND (^ <4%)”, the MS was “ND (^ <4%)” and the PS was “ND (^ <4%)”. For the same compound, the SH was “ND (^ <4%)”, the UK was “ND (^ <4%)” and the AP (hydrochloride, 3 mg/kg) was “++++ (≥74%)”.

With `CCc1scc2c1CC(NC)CC2` (single isomer, unassigned) [Compound 116, 3-ethyl-N-methyl-4,5,6,7-tetrahydro-2-benzothiophen-5-amine hydrochloride] the “MED (minimal effective dose)” value (hydrochloride) was <3 mpk, the AD was “ND (^ <4%)” and the AG was “ND (^ <4%)”. For the same compound, the AN was “ND (^ <4%)”, the AX was “ND (^ <4%)” and the CE was “ND (^ <4%)”. The HL was “ND (^ <4%)”, the MS was “ND (^ <4%)” and the PS was “ND (^ <4%)”. The SH was “ND (^ <4%)”, the UK was “ND (^ <4%)” and the AP (hydrochloride, 3 mg/kg) was “ND (^ <4%)”.

`CCc1sc(CC)c2c1CCC(NC)C2` (single isomer, unassigned) [Compound 117, 1,3-diethyl-N-methyl-4,5,6,7-tetrahydro-2-benzothiophen-5-amine hydrochloride] was tested, and the minimal effective dose was > 3 mg/kg, the AD was “ND (^ <4%)” and the AG was “ND (^ <4%)”. The AN was “ND (^ <4%)”, the AP was “ND (^ <4%)” and the AX was “ND (^ <4%)”. The CE was “ND (^ <4%)”, the HL was “ND (^ <4%)” and the MS was “ND (^ <4%)”. For the same compound, the PS was “ND (^ <4%)”, the SH was “ND (^ <4%)” and the UK (hydrochloride, 3 mg/kg) was “ND (^ <4%)”.

For `CCc1sc(CC)c2c1CCC(NC)C2` (single isomer, unassigned) [Compound 118, 1,3-diethyl-N-methyl-4,5,6,7-tetrahydro-2-benzothiophen-5-amine hydrochloride], the “MED (minimal effective dose)” value was >3 mpk, the AD was “ND (^ <4%)” and the AG was “ND (^ <4%)”. For the same compound, the AN was “ND (^ <4%)”, the AP was “ND (^ <4%)” and the AX was “ND (^ <4%)”. The CE was “ND (^ <4%)”, the HL was “ND (^ <4%)” and the MS was “ND (^ <4%)”. For the same compound, the PS was “ND (^ <4%)”, the SH was “ND (^ <4%)” and the UK (hydrochloride, 3 mg/kg) was “+ (≥4%)”.

`CN(C)C1(C)CCc2ccsc2C1` (single isomer, unassigned) [Compound 119, N, N, 6-trimethyl-5,7-dihydro-4H-benzothiophen-6-amine hydrochloride] was tested, and the minimal effective dose was 3 mg/kg, the AD was “ND (^ <4%)” and the AG was “ND (^ <4%)”. The AN was “ND (^ <4%)”, the AP was “ND (^ <4%)” and the AX was “++++ (≥74%)”. The CE was “ND (^ <4%)”, the HL was “ND (^ <4%)” and the MS was “ND (^ <4%)”. For the same compound, the PS was “ND (^ <4%)”, the SH was “ND (^ <4%)” and the UK was “ND (^ <4%)”.

For `CN(C)C1CCc2csc(C(F)(F)F)c2C1` (single isomer, unassigned) [Compound 120, N,N-dimethyl-3-(trifluoromethyl)-4,5,6,7-tetrahydro-2-benzothiophen-5-amine hydrochloride], the minimal effective dose was 3 mg/kg, the AD was “ND (^ <4%)” and the AG was “ND (^ <4%)”. The AN was “ND (^ <4%)”, the AP was “++++ (≥74%)” and the AX was “ND (^ <4%)”. The CE was “ND (^ <4%)”, the HL was “ND (^ <4%)” and the MS was “ND (^ <4%)”. For the same compound, the PS was “ND (^ <4%)”, the SH was “ND (^ <4%)” and the UK was “ND (^ <4%)”.

For `CN(C)C1(C)CCc2cscc2C1` (single isomer, unassigned) [Compound 121, N,N, 5-trimethyl-6,7-dihydro-4H-2-benzothiophen-5-amine hydrochloride], the minimal effective dose was 3 mg/kg, the AD was “ND (^ <4%)” and the AG was “ND (^ <4%)”. For the same compound, the AN was “ND (^ <4%)”, the AP was “+ (≥4%)” and the AX was “+ (≥4%)”. The CE was “ND (^ <4%)”, the HL was “ND (^ <4%)” and the MS was “ND (^ <4%)”. The PS was “ND (^ <4%)”, the SH was “ND (^ <4%)” and the UK was “+++ (≥49%)”.

In the case of `CC1(N)CCc2cscc2C1.Cl` (single isomer, unassigned) [Compound 122, 5-methyl-6,7-dihydro-4H-2-benzothiophen-5-amine hydrochloride], the minimal effective dose is reported as 1 mg/kg, the AG is reported as “ND (^ <4%)” and the AN is reported as “ND (^ <4%)”. The AP was “ND (^ <4%)”, the CE was “ND (^ <4%)” and the MS was “ND (^ <4%)”. For the same compound, the SH was “ND (^ <4%)”, the UK was “ND (^ <4%)” and the AD (hydrochloride, 3 mg/kg) was “+++ (≥49%)”. For the same compound, the AX (hydrochloride, 3 mg/kg) was “+ (≥4%)”, the HL (hydrochloride, 3 mg/kg) was “ND (^ <4%)” and the PS (hydrochloride, 3 mg/kg) was “ND (^ <4%)”.

In the case of `CC1(N)CCc2cscc2C1.Cl` (single isomer, unassigned) [Compound 123, 5-methyl-6,7-dihydro-4H-2-benzothiophen-5-amine hydrochloride], the “MED (minimal effective dose)” value is reported as 1 mpk, the AG is reported as “ND (^ <4%)” and the AN is reported as “ND (^ <4%)”. The AP was “ND (^ <4%)”, the CE was “ND (^ <4%)” and the MS was “ND (^ <4%)”. The SH was “ND (^ <4%)”, the UK was “ND (^ <4%)” and the AD (hydrochloride, 3 mg/kg) was “+ (≥4%)”. For the same compound, the AX (hydrochloride, 3 mg/kg) was “ND (^ <4%)”, the HL (hydrochloride, 3 mg/kg) was “++ (≥24%)” and the PS (hydrochloride, 3 mg/kg) was “++ (≥24%)”.

With `Cl.c1scc2c1CCC(NC1CC1)C2` (single isomer, unassigned) [Compound 124, N-cyclopropyl-4,5,6,7-tetrahydro-2-benzothiophen-5-amine hydrochloride] the “MED (minimal effective dose)” value (hydrochloride) was 3 mpk, the AG was “ND (^ <4%)” and the AN was “ND (^ <4%)”. The AP was “ND (^ <4%)”, the AX was “ND (^ <4%)” and the CE was “ND (^ <4%)”. For the same compound, the HL was “ND (^ <4%)”, the MS was “ND (^ <4%)” and the PS was “ND (^ <4%)”. The SH was “ND (^ <4%)”, the AD (hydrochloride, 3 mg/kg) was “ND (^ <4%)” and the UK (hydrochloride, 3 mg/kg) was “+++ (≥49%)”.

`Cl.c1scc2c1CCC(NC1CC1)C2` (single isomer, unassigned) [Compound 125, N-cyclopropyl-4,5,6,7-tetrahydro-2-benzothiophen-5-amine hydrochloride] was tested, and the “MED (minimal effective dose)” value (hydrochloride) was 0.3 mpk, the AG was “ND (^ <4%)” and the AN was “ND (^ <4%)”. The AP was “ND (^ <4%)”, the AX was “ND (^ <4%)” and the CE was “ND (^ <4%)”. For the same compound, the HL was “ND (^ <4%)”, the MS was “ND (^ <4%)” and the PS was “ND (^ <4%)”. The SH was “ND (^ <4%)”, the AD (hydrochloride, 3 mg/kg) was “+++ (≥49%)” and the UK (hydrochloride, 3 mg/kg) was “ND (^ <4%)”.
